Test results as given in patent US20250145608A1, “KRAS DEGRADING COMPOUNDS COMPRISING ANNULATED 2-AMINO-3-CYANO THIOPHENES” (Boehringer Ingelheim Int'l GmbH Corp., priority 2021, published 2025).
pIC50: −log10 of the molar value. Where two headings read alike, the source gives them in different places.

Key:
Format in all cases: cell-based
KRAS(G12D) = target: T1, KRAS(G12D) (Homo sapiens, UniProt P01116, G12D); experiment: HiBit degradation assay in GP5d-HiBit-KRAS(G12D) cells (18 h; DC50, Dmax)
T1 construct: introduced immediately downstream of the initiating Methionine codon of the endogenous KRAS locus; host or cells: GP5d-HiBit-KRAS(G12D), a CRISPR knock-in at the endogenous locus
T1 sequence (P01116 1-188 isoform P01116-2 G12D): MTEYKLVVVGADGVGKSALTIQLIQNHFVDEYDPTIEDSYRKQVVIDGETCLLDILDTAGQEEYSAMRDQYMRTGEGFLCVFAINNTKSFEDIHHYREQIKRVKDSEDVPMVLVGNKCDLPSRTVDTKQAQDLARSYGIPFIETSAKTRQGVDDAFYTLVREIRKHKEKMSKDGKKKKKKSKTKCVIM
Description: A HiBit protein detection tag (amino acid sequence […], Seq ID No 1) was introduced immediately downstream of the initiating Methionine codon of the endogenous KRAS locus (Ensembl gene ID ENSG00000133703.7) of GP5d cells (ECACC Cat. No. 95090715) by CRISPR-based genome engineering using a KRAS(G12D) mutant donor construct encoding the HiBit tag. […] Correct modification of the KRAS locus was assessed by PCR-based genotyping and Sanger sequencing of the isolated PCR products. The resulting cell line is referred to as GP5d-HiBit-KRAS(G12D).
To assess PROTAC-mediated degradation of KRAS(G12D), GP5d-HiBit-KRAS(G12D) cells were seeded at 25000 cells per well in 100 μL Dulbecco's Modified Eagle medium (Sigma cat. no. D6429) supplemented with 10% fetal calf serum into white bottom opaque 96 well plates (Perkin Elmer cat no. 5680). Plates were incubated at 37° C., 5% CO2 in a humidified incubator over night to allow the cells to adhere. […] Plates were further incubated at 37° C. for 18 hours. Following incubation, 100 μL per well Promega Nano-Glo HiBit lytic detection reagent mix (Promega Nano-Glo HiBit Lytic Detection System #N3050), prepared according to the manufacturer's instructions in the kit, were added. To allow for adequate cell lysis, plates were incubated on an orbital shaker for 15 min and further incubated 30 min at room temperature. Upon completion of cell lysis, luminescence was measured using an Envision plate reader using the Ultrasensitive Luminescence Protocol for 96 well plates. Luminescence levels were normalized by the values obtained with DMSO-treated samples and plotted as percent of DMSO control. DC50 values were computed using a four parametric logistic model. Dmax values represent the maximal extent of degradation observed and is stated as percent of control (% Ctrl.) treatments. DC50 and Dmax are reported in Table 64 for representative compounds of the invention.

NCI-H358 cells = experiment: NCI-H358 CTG proliferation assay (120 h) (NSCLC, G12C); settings: Homo sapiens
Description: NCI-H358 CTG Proliferation Assay (120 h) (NSCLC, G12C)
NCI-H358 cells (ATCC No. CRL-5807) are dispensed into white bottom opaque 96 well plates (Perkin Elmer cat no. 5680) at a density of 2000 cells per well in 100 μL RPMI-1640 ATCC-Formulation (Gibco #A10491)+10% FCS (fetal calf serum) (assay 1) or into black 384-well plates, flat and clear bottom (Greiner, PNr. 781091) at a density of 200 cells per well in 60 μl RPMI-1640 ATCC-Formulation (Gibco #A10491)+10% FCS (fetal calf serum) (assay 2). […] Compounds (10 mM stock in DMSO) are added at logarithmic dose series using the HP Digital Dispenser D300 (Tecan) (assay 1) or the ECHO acoustic liquid handler system (Beckman Coulter) (assay 2), normalizing for added DMSO and including DMSO controls. For the TO time point measurement, untreated cells are analyzed at the time of compound addition. Plates are incubated for 120 h, and cell viability is measured using CellTiter-Glo luminescent cell viability reagent (Promega product code G7570). Viability (stated as percent of control) is defined as relative luminescence units RLU of each well divided by the RLU of cells in DMSO controls. IC50 values are determined from viability measurements by non-linear regression using a four parameter model.

GP5d cells = experiment: GP5d cell proliferation assay (colorectal cancer, G12D), 5 days; settings: Homo sapiens, 120 h
Description: GP5d Cell Proliferation Assay (Colorectal Cancer, G12D)
(§1) GP5d cells (ECACC 95090715) are dispensed into white bottom opaque 96 well plates at a density of 5000 cells per well in 100 μL DMEM (BioWhittaker, Cat #BE12-605F) supplemented with 10% FCS. […] Compounds (10 mM stock in DMSO) are added at logarithmic dose series using the HP Digital Dispenser D300 (Tecan), normalizing for added DMSO. For the TO time point measurement, untreated cells are analysed at the time of compound addition. Plates are incubated for 5 days, and cell viability is measured using CellTiter-Glo luminescent cell viability reagent (Promega, Cat. No G7570). Viability (stated as percent of control) is defined as relative luminescence units RLU of each well divided by the RLU of cells in DMSO controls. IC50 values were computed from relative viability values using a four parametric logistic model.

SW620 cells = experiment: SW620 cell proliferation assay (colorectal cancer, G12V), 5 days; settings: Homo sapiens, SW-620, 120 h
Description: SW620 Cell Proliferation Assay (Colorectal Cancer, G12V)
as §1, with “SW620” for “GP5d”, “(ATCC CCL-227)” for “(ECACC 95090715)”, “plates (Perkin Elmer cat no. 5680)” for “plates”, “2000” for “5000”

[1] = assay 1, read-out: H358 (assay 1) IC50
[2] = assay 2, read-out: H358 (assay 2) IC50

Compound | DC50 (KRAS(G12D)) | Dmax 18 h (KRAS(G12D)) | pIC50 (NCI-H358 cells; [1]) | pIC50 (NCI-H358 cells; [2]) | pIC50 (GP5d cells) | pIC50 (SW620 cells)
Cc1ncsc1-c1ccc([C@@H](NC(=O)[C@@H]2C[C@@H](O)CN2C(=O)[C@@H](C(C)C)n2cc(OCCCN3CCCN(c4nccc(-c5noc([C@@]6(C)CCCc7sc(N)c(C#N)c76)n5)n4)[C@@H](C)C3)nn2)[C@H](O)C(C)C)cc1 (single isomer, unassigned) [I-42] | 0.462 µM | 74 % Ctrl |  | 5.72 |  | 
Cc1ncsc1-c1ccc(CNC(=O)[C@@H]2C[C@@H](O)CN2C(=O)C(c2cc(OCCN3CCCN(c4nccc(-c5noc([C@@]6(C)CCCc7sc(N)c(C#N)c76)n5)n4)[C@@H](C)C3)no2)C(C)C)cc1 (some centres unmarked) [I-2] | 0.263 µM | 84 % Ctrl | 5.53 |  | ≤ 5.05 | 6.22
Cc1ncsc1-c1ccc(CNC(=O)[C@@H]2C[C@@H](O)CN2C(=O)C(c2cc(OCCCCN3CCCN(c4nccc(-c5noc([C@@]6(C)CCCc7sc(N)c(C#N)c76)n5)n4)[C@@H](C)C3)no2)C(C)C)cc1 (some centres unmarked) [I-3] | 0.0027 µM | 91 % Ctrl | 7.18 | 7.22 | 8.21 | 7.88
CC(C)C(C(=O)N1C[C@H](O)C[C@H]1C(=O)NCc1ccc(Br)cc1)c1cc(OCCCCN2CCCN(c3nccc(-c4noc([C@@]5(C)CCCc6sc(N)c(C#N)c65)n4)n3)[C@@H](C)C2)no1 (some centres unmarked) [I-7] | 0.011 µM | 89 % Ctrl | 6.32 | 6.75 | 7.63 | 7.25
Cc1ncsc1-c1ccc(CNC(=O)[C@@H]2C[C@@H](O)CN2C(=O)C(c2cc(OCCCCCCN3CCCN(c4nccc(-c5noc([C@@]6(C)CCCc7sc(N)c(C#N)c76)n5)n4)[C@@H](C)C3)no2)C(C)C)cc1 (some centres unmarked) [I-8] | 0.0114 µM | 86 % Ctrl | 6.14 | 6.87 | 7.04 | 7.30
Cc1cc(CNC(=O)[C@@H]2C[C@@H](O)CN2C(=O)C(c2cc(OCCCCN3CCCN(c4nccc(-c5noc([C@@]6(C)CCCc7sc(N)c(C#N)c76)n5)n4)[C@@H](C)C3)no2)C(C)C)ccc1-c1scnc1C (some centres unmarked) [I-10] | 0.0154 µM | 91 % Ctrl | 6.58 | 6.69 | 7.41 | 6.94
Cc1ncsc1-c1ccc(CNC(=O)[C@@H]2C[C@@H](O)CN2C(=O)C(c2cc(OCCOCCN3CCCN(c4nccc(-c5noc([C@@]6(C)CCCc7sc(N)c(C#N)c76)n5)n4)[C@@H](C)C3)no2)C(C)C)cc1 (some centres unmarked) [I-14] | 0.076 µM | 80 % Ctrl |  | 6.07 |  | 
CC(C)C(C(=O)N1C[C@H](O)C[C@H]1C(=O)NCc1ccc(-n2cncn2)cc1)c1cc(OCCCCN2CCCN(c3nccc(-c4noc([C@@]5(C)CCCc6sc(N)c(C#N)c65)n4)n3)[C@@H](C)C2)no1 (some centres unmarked) [I-17] | 0.0033 µM | 93 % Ctrl |  | 7.05 |  | 
Cc1ncsc1-c1ccc(CNC(=O)[C@@H]2C[C@@H](O)CN2C(=O)C(c2cc(OCCCCN3CCCN(c4ccnc(-c5noc([C@@]6(C)CCCc7sc(N)c(C#N)c76)n5)n4)[C@@H](C)C3)no2)C(C)C)cc1 (some centres unmarked) [I-22] | 0.0488 µM | 92 % Ctrl |  | 7.01 |  | 
Cc1ncsc1-c1ccc([C@H](CCOP(=O)(O)O)NC(=O)[C@@H]2C[C@@H](O)CN2C(=O)[C@H](C(C)C)n2cc(OCCCCN3CCCN(c4nccc(-c5noc([C@@]6(C)CCCc7sc(N)c(C#N)c76)n5)n4)[C@@H](C)C3)nn2)cc1 [I-39] | 0.0077 µM | 87 % Ctrl |  | 7.24 |  | 

More lines, now with the values ahead:

DC50 (KRAS(G12D)) | Dmax 18 h (KRAS(G12D)) | pIC50 (NCI-H358 cells; [1]) | pIC50 (NCI-H358 cells; [2]) | pIC50 (GP5d cells) | pIC50 (SW620 cells) | Compound
0.101 µM | 77 % Ctrl | 6.31 | 6.36 | 6.88 | 6.58 | Cc1ncsc1-c1ccc(CNC(=O)[C@@H]2C[C@@H](O)CN2C(=O)[C@H](c2cc(OCCCCN3CCCN(c4nccc(-c5noc([C@@]6(C)CCCc7sc(N)c(C#N)c76)n5)n4)[C@@H](C)C3)no2)C(C)C)cc1 (single isomer, unassigned) [I-26]
0.97 µM | 61 % Ctrl |  | 5.57 |  |  | Cc1ncsc1-c1ccc([C@@H](NC(=O)[C@@H]2C[C@@H](O)CN2C(=O)[C@@H](C(C)C)n2cc(OCCCCN3CCCN(c4nccc(-c5noc([C@@]6(C)CCCc7sc(N)c(C#N)c76)n5)n4)[C@@H](C)C3)nn2)[C@H](C)O)cc1 (single isomer, unassigned) [I-40]
0.0497 µM | 88 % Ctrl |  | 6.22 |  |  | Cc1ncsc1-c1ccc([C@@H](NC(=O)[C@@H]2C[C@@H](O)CN2C(=O)[C@@H](C(C)C)n2cc(OCCCCN3CCCN(c4nccc(-c5noc([C@@]6(C)CCCc7sc(N)c(C#N)c76)n5)n4)[C@@H](C)C3)nn2)[C@H](O)C(C)C)cc1 (single isomer, unassigned) [I-44]
0.0064 µM | 94 % Ctrl | 6.82 | 7.02 | 7.65 | 7.56 | Cc1ncsc1-c1ccc(CNC(=O)[C@@H]2C[C@@H](O)CN2C(=O)C(c2cc(OCCCN3CCCN(c4nccc(-c5noc([C@@]6(C)CCCc7sc(N)c(C#N)c76)n5)n4)[C@@H](C)C3)no2)C(C)C)cc1 (some centres unmarked) [I-1]
0.0065 µM | 92 % Ctrl | 6.93 | 7.23 | 7.86 | 7.32 | Cc1ncsc1-c1ccc(CNC(=O)[C@@H]2C[C@@H](O)CN2C(=O)C(c2cc(OCCCCN3CCCN(c4nccc(-c5noc([C@@]6(C)CCCc7sc(N)c(C#N)c76)n5)n4)[C@@H](C)C3)no2)C(C)C)cc1F (some centres unmarked) [I-5]
0.0098 µM | 90 % Ctrl |  | 6.92 |  |  | Cc1ncsc1-c1ccc(CNC(=O)[C@@H]2C[C@@H](O)CN2C(=O)C(c2cc(OC/C=C/CN3CCCN(c4nccc(-c5noc([C@@]6(C)CCCc7sc(N)c(C#N)c76)n5)n4)[C@@H](C)C3)no2)C(C)C)cc1 (some centres unmarked) [I-15]
0.0411 µM | 90 % Ctrl |  | 7.09 |  |  | Cc1ncsc1-c1ccc(CNC(=O)[C@@H]2C[C@@H](O)CN2C(=O)C(c2cc(OCCCN3CCCN(c4ccnc(-c5noc([C@@]6(C)CCCc7sc(N)c(C#N)c76)n5)n4)[C@@H](C)C3)no2)C(C)C)cc1 (some centres unmarked) [I-21]
